Assay [1] concerns the target T1, purified human Factor XIa (Homo sapiens, UniProt P03951).
T1 construct: purified human Factor XIa; purchased Sekisui Diagnostics
Nature of the assay: Factor XIa Assay. It counts as biochemical. Conditions: fluorogenic substrate Z-Gly-Pro-Arg-AFC 100 μM, 40 pM enzyme, pH 7.4, read-out: F11a IC50. As to the method:
The effectiveness of a compound of the present invention as an inhibitor of Coagulation Factor XIa can be determined using a relevant purified serine protease, and an appropriate synthetic substrate. The rate of hydrolysis of the chromogenic or fluorogenic substrate by the relevant serine protease was measured both in the absence and presence of compounds of the present invention. Assays were conducted at room temperature or at 37° C. […] A decrease in the rate of fluorescence change in the presence of inhibitor is indicative of enzyme inhibition. Such methods are known to one skilled in the art. […]
Factor XIa determinations were made in 50 mM HEPES buffer at pH 7.4 containing 150 mM NaCl, 5 mM CaCl2, and 0.1% PEG 8000 (polyethylene glycol; JT Baker or Fisher Scientific). Determinations were made using purified human Factor XIa at a final concentration of 40 pM (Sekisui Diagnostics) and he synthetic substrate, Z-Gly-Pro-Arg-AFC, TFA salt (Sigma #C0980) at a concentration of 100 μM.
Activity assays were performed by diluting a stock solution of substrate at least tenfold to a final concentration ≦0.1 Km into a solution containing enzyme or enzyme equilibrated with inhibitor. Times required to achieve equilibration between enzyme and inhibitor were determined in control experiments. Initial velocities of product formation in the absence (VO) or presence of inhibitor (Vi) were measured. Assuming competitive inhibition, and that unity is negligible compared Km/[S], [I]/e, and [I]/e (where [S], [I], and e respectively represent the total concentrations, of substrate, inhibitor and enzyme), the equilibrium constant (Ki) for dissociation of the inhibitor from the enzyme can be obtained from the dependence of VO/Vi on [I] shown in the following equation.

Assay [2] has as its target T2, purified Human plasma kallikrein (Homo sapiens, UniProt P03952).
T2 construct: yields a heavy chain (371 amino acids) and a light chain (248 amino acids); purchased Enzyme Research Laboratories
Nature of the assay: Kallikrein Assay. Conditions: Plasma Kallekrein IC50; fluorogenic substrate Acetyl-K-P-R-AFC, 0.5 nM enzyme, pH 7.4; read-out: PK IC50. It counts as biochemical. As to the method:
The effectiveness of a compound of the present invention as an inhibitor of Kallikrein can be determined using a relevant purified serine protease, and an appropriate synthetic substrate. The rate of hydrolysis of the chromogenic or fluorogenic substrate by the relevant serine protease was measured both in the absence and presence of compounds of the present invention. Assays were conducted at room temperature or at 37° C. […] A decrease in the rate of fluorescence change in the presence of inhibitor is indicative of enzyme inhibition. Such methods are known to one skilled in the art. The results of this assay are expressed as the inhibitory constant, K1.
Kallikrein determinations were made in 50 mM HEPES buffer at pH 7.4 containing 150 mM NaCl, 5 mM CaCl2, and 0.1% PEG 8000 (polyethylene glycol; Fisher Scientific). Determinations were made using purified Human plasma kallikrein at a final concentration of 0.5 nM (Enzyme Research Laboratories) and the synthetic substrate, Acetyl-K—P—R-AFC (Sigma # C6608) at a concentration of […].
Times required to achieve equilibration between enzyme and inhibitor were determined in control experiments. The reactions were performed under linear progress curve conditions and fluorescence increase measured at 405 Ex/510 Em nm. […] IC50 was determined by inflection point from a four parameter logistic curve fit. Ki was calculated using the Cheng Prusoff equation, Ki=IC50/(1+([S]/Km)).

pIC50: −log10 of the molar value.

T2 sequence (P03952 391-638 limits assumed): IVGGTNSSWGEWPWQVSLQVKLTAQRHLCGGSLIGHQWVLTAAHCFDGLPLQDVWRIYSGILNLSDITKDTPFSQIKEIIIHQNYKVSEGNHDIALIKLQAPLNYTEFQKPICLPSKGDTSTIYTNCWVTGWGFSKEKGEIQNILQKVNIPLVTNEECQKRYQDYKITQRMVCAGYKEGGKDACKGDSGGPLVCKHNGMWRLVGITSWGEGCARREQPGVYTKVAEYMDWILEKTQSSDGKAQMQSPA
T2 sequence (P03952 20-390 partner limits assumed): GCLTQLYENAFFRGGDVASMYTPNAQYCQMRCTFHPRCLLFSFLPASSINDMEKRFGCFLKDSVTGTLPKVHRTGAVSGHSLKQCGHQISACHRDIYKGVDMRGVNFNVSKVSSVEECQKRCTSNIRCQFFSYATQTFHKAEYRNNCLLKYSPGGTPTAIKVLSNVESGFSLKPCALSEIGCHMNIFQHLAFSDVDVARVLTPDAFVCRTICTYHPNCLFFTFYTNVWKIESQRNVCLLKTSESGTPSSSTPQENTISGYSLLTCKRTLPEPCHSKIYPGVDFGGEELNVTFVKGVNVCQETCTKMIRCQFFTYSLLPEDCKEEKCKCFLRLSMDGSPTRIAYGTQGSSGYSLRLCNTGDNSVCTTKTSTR
T1 sequence (P03951 388-625 limits assumed): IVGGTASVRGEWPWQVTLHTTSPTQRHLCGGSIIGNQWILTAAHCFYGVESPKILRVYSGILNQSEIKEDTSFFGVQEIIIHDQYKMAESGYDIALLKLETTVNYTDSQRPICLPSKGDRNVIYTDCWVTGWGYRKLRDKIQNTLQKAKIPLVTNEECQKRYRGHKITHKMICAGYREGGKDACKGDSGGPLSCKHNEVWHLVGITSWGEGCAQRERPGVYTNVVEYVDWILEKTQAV
T1 sequence (P03951 19-387 partner limits assumed): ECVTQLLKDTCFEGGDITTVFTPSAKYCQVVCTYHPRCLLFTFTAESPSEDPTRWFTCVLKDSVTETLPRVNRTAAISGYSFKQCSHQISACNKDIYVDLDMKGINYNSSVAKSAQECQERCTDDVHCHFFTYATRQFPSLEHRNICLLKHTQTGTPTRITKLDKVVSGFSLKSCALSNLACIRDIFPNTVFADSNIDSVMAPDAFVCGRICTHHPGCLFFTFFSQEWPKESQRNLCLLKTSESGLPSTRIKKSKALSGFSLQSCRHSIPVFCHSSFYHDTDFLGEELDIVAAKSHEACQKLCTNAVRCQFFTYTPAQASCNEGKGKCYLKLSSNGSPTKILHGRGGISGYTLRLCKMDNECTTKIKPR

By pIC50 is commonly meant the IC50 on a negative log10 scale, so that one unit is a factor of ten. Consider `COC(=O)Nc1ccc(-c2cnc(C(CC3CC3)c3ccc(-c4cc(Cl)ccc4-n4cnnn4)c[n+]3[O-])[nH]2)c(Cl)c1` (single isomer, unassigned) [Example 41], for which the values for the pIC50 in assay [1] and in assay [2] were 7.63 and 6.40, respectively.
Turning to `COC(=O)Nc1ccc(-c2cnc(C(CC3CC3)c3ccc(-c4cc(Cl)ccc4-n4cnnn4)c[n+]3[O-])[nH]2)c(Cl)c1` (single isomer, unassigned) [Example 42], the pIC50 in assay [1] is 9.24; in assay [2], 7.55.
For `COC(=O)Nc1ccc(-c2cnc(C(CC3(C)CC3)c3ccc(-c4cc(Cl)ccc4-n4cnnn4)c[n+]3[O-])[nH]2)cc1` (single isomer, unassigned) [Example 43], in that order: 7.32 and 6.05.
In the same order, the values of `COC(=O)Nc1ccc(-c2cnc(C(CC3(C)CC3)c3ccc(-c4cc(Cl)ccc4-n4cnnn4)c[n+]3[O-])[nH]2)cc1` (single isomer, unassigned) [Example 44] are 8.82 and 7.83.
Consider `Nc1ccc(-c2cnc(C(CC3CC3)c3ccc(-c4cc(Cl)ccc4-n4cnnn4)c[n+]3[O-])[nH]2)c(Cl)n1` (single isomer, unassigned) [Example 47, 6-chloro-5-[2-(1-{5-[5-chloro-2-(1H-tetrazol-1-yl)phenyl]-1-oxidopyridin-2-yl}-2-cyclopropylethyl)-1H-imidazol-5-yl]pyridin-2-amine], for which the pIC50 is 9.49 in assay [1] and 7.10 in assay [2].
For `Nc1ccc(-c2c[nH]c(C(CC3CC3)c3ccc(-c4cc(Cl)ccc4-n4cnnn4)c[n+]3[O-])n2)cn1` (single isomer, unassigned) [Example 49], in that order: 7.71 and 5.67.
For `Nc1ccc(-c2c[nH]c(C(CC3CC3)c3ccc(-c4cc(Cl)ccc4-n4cnnn4)c[n+]3[O-])n2)cn1` (single isomer, unassigned) [Example 50], in that order: 8.97 and 6.64.
For `O=C(O)c1cccc(-c2cnc(C(CC3CC3)c3ccc(-c4cc(Cl)ccc4-n4cnnn4)c[n+]3[O-])[nH]2)c1F` (single isomer, unassigned) [Example 51, 3-[2-(1-{5-[5-chloro-2-(1H-tetrazol-1-yl)phenyl]-1-oxidopyridin-2-yl}-2-cyclopropylethyl)-1H-imidazol-5-yl]-2-fluorobenzoic acid], in that order: 9.06 and 7.10.
For the compound `O=C(O)c1cccc(-c2c[nH]c(C(CC3CC3)c3ccc(-c4cc(Cl)ccc4-n4cnnn4)c[n+]3[O-])n2)c1` (single isomer, unassigned) [Example 53], the negative-log IC50 (pIC50) in assay [1] was 9.05; in assay [2], 7.21.
For `O=C(O)c1ccc(-c2cnc(C(CC3CC3)c3ccc(-c4cc(Cl)ccc4-n4cnnn4)c[n+]3[O-])[nH]2)cc1` (single isomer, unassigned) [Example 56], in that order: 7.96 and 6.62.
For `O=C(O)c1scc(-c2cnc(C(CC3CC3)c3ccc(-c4cc(Cl)ccc4-n4cnnn4)c[n+]3[O-])[nH]2)c1F` (single isomer, unassigned) [Example 57, 2-(1-(5-(5-carboxy-4-fluorothiophen-3-yl)-1H-imidazol-2-yl)-2-cyclopropylethyl)-5-(5-chloro-2-(1H-tetrazol-1-yl)phenyl)pyridine 1-oxide], in that order: 8.82 and 7.24.
For `O=C(O)c1scc(-c2cnc(C(CC3CC3)c3ccc(-c4cc(Cl)ccc4-n4cnnn4)c[n+]3[O-])[nH]2)c1F` (single isomer, unassigned) [Example 58, 2-(1-(5-(5-carboxy-4-fluorothiophen-3-yl)-1H-imidazol-2-yl)-2-cyclopropylethyl)-5-(5-chloro-2-(1H-tetrazol-1-yl)phenyl)pyridine 1-oxide], in that order: 7.93 and 5.98.

These data come from US9868727B2, “Factor XIa inhibitors” (Merck Sharp & Dohme Corp., priority 2014, dated 2018).
